Data: publication PMC4205912, “Sea foam as a source of fungal inoculum for the isolation of biologically active natural products” (Mycology, 2014)
In brackets after ≈: the same amount, converted by molar mass. Where two headings read alike, the source gives them in different places.

Columns and labels:
[1] = test system: VRE EF379; experiment: microbroth antibiotic susceptibility testing, VRE; format: cell-based, vancomycin-resistant Enterococcus faecium; conditions: Enterococcus, VRE; for IC50: read-out: VRE IC50; for MIC: read-out: VRE MIC
Procedure: (§1) All microbroth antibiotic susceptibility testing was carried out in triplicate in 96-well plates in accordance with Clinical Laboratory Standards Institute testing standards (NCCLS, [2003]) using the following pathogens: MRSA ATCC 33591 (MRSA), S. warneri ATCC 17917, VRE EF379 (VRE), Pseudomonas aeruginosa ATCC 14210, Proteus vulgaris ATCC 12454, and Candida albicans ATCC 14035. Extract fractions were assayed at 250 µg/mL while pure compounds were serially diluted to generate a range of 12 concentrations (128–0.0625 µg/mL) in a final well volume concentration of 2% DMSO(aq). […] The optical density of the plate was recorded using a Thermo Scientific Varioskan Flash plate reader at 600 nm at time zero and then again after incubation of the plates for 22 h at 37°C. After subtracting the time zero OD600 from the final reading, the percentages of microorganism survival relative to vehicle control wells were calculated.

[2] = test system: adult human epidermal keratinocytes (HEKa); experiment: cytotoxicity assay (Alamar blue), keratinocytes; format: cell-based; conditions: Homo sapiens; HeKa cells, 24 h; read-out: Keratinocyte IC50
Procedure: (§2) Human foreskin BJ fibroblast cells (ATCC CRL-2522), adult human epidermal keratinocytes (HEKa), and human breast adenocarcinoma cells (ATCC HTB-26) were grown to 80% confluency (growth conditions are provided in Supplementary Materials and Methods), the cells were counted, diluted, and plated into treated 96-well cell culture plates. The BJ fibroblast and HEKa cells were plated at a cell density of 10,000 cells per well and the HTB-26 cells were plated at cell density of 5000 cells per well in 90 µL of respective growth medium (without the addition of antibiotics) and incubated for 24 h to allow cells to adhere to the plates before treatment. Pure compounds were tested in triplicate in serial dilutions of eight concentrations ranging from 128 µg/mL to 1 µg/mL per well (final well volume of 100 µL, 1% DMSO per well). Each of the cell lines were incubated at 37°C in a humidified atmosphere of 5% CO2; the BJ fibroblast and HEKa cells for 24 h and the HTB-26 cells for 72 h. Each plate contained four uninoculated positive controls, four untreated negative controls, and one column containing a concentration range of zinc pyrithione or doxorubicin. Alamar blue was added, 24 h after the treatment, and fluorescence was monitored using a Thermo Scientific Varioskan Flash plate reader at 560/12 excitation, 590 nm emission both at time zero and 4 h after Alamar blue addition. The inferred percentage of cell viability relative to vehicle control wells were calculated after subtracting the time zero emission 590 nm measurement from the final reading and the IC50 was determined.

[3] = test system: Pseudomonas aeruginosa ATCC 14210; experiment: microbroth antibiotic susceptibility testing, P. aeruginosa; format: cell-based; conditions: Pseudomonas aeruginosa, ATCC14210; triplicate, averaged; 22 h at 37°C
Procedure: as §1

[4] = test system: Human foreskin BJ fibroblast cells (ATCC CRL-2522); experiment: cytotoxicity assay (Alamar blue), fibroblasts; format: cell-based; conditions: for IC50: Homo sapiens, 24 h, read-out: Fibroblast IC50
Procedure: as §2

[5] = test system: Proteus vulgaris ATCC 12454; experiment: microbroth antibiotic susceptibility testing, P. vulgaris; format: cell-based; conditions: Proteus vulgaris, ATCC12454; triplicate, averaged; 22 h at 37°C
Procedure: as §1, with “14035.” for “14035. Extract fractions were assayed at 250 µg/mL while pure compounds were serially diluted to generate a range of 12 concentrations (128–0.0625 µg/mL) in a final well volume concentration of 2% DMSO(aq).”

[6] = test system: S. warneri ATCC 17917; experiment: microbroth antibiotic susceptibility testing, S. warneri; format: cell-based; conditions: Staphylococcus warneri; for IC50: read-out: S. warneri IC50; for MIC: read-out: S. warneri MIC
Procedure: as §1

[7] = test system: MRSA ATCC 33591; experiment: microbroth antibiotic susceptibility testing, MRSA; format: cell-based, methicillin-resistant Staphylococcus aureus; conditions: Staphylococcus aureus; for IC50: read-out: MRSA IC50; for MIC: read-out: MRSA MIC
Procedure: as §1

[8] = test system: human breast adenocarcinoma cells (ATCC HTB-26); experiment: cytotoxicity assay (Alamar blue), HTB-26; format: cell-based; conditions: for IC50: Homo sapiens, HTB26, 72 h, read-out: HTB-26 IC50
Procedure: as §2

[9] = test system: Candida albicans ATCC 14035; experiment: microbroth susceptibility testing, C. albicans; format: cell-based; conditions: for IC50 / MIC: Candida albicans, ATCC14035
Procedure: as §1

[10] = test system: erythropoietin gene expression; parameters: method as in Cai et al. [1998]; conditions: at a concentration of 1–1.6 µM; ref Cai et al. [1998]; cited from earlier work
[11] = triplicate, averaged, 22 h at 37°C
[12] = ATCC17917, triplicate, averaged, 22 h at 37°C
[13] = HTB-26 breast cancer cells, 72 h
[14] = at a concentration of 128 μg/mL

Structure (SMILES) | IC50 [1, 11] | MIC [1, 11] | IC50 [3] | MIC [3] | IC50 [5] | MIC [5] | IC50 [6, 12] | MIC [6, 12] | IC50 [7, 11] | MIC [7, 11] | IC50 [9, 11] | MIC [9, 11] | IC50 [2] | IC50 ([4]; BJ cells) | HTB-26 MIC [8, 13] | IC50 [8, 13] | further results
C[C@H]1CCC/C=C/[C@@H]2C[C@H](O)C[C@H]2[C@H](O)/C=C/C(=O)O1 [Brefeldin A, brefeldin A] | > 128 µg/mL | > 128 µg/mL | > 128 µg/mL | > 128 µg/mL | > 128 µg/mL | > 128 µg/mL | > 128 µg/mL | > 128 µg/mL | > 128 µg/mL | > 128 µg/mL | 20 µg/mL (≈ 71.3 µM) | 128 µg/mL (≈ 457 µM) | 0.5 µg/mL (≈ 1.78 µM) | > 64 µg/mL | – | > 0.5 µg/mL | effect against C. albicans [9]: antifungal effect
COc1cccc2c1C(=O)c1c(O)c3c(c(O)c1C2=O)C[C@@](O)(C(=O)CO)C[C@@H]3O[C@H]1C[C@H](N)[C@H](O)[C@H](C)O1 [Doxorubromycin, doxorubicin, reference compound] | – | – | – | – | – | – | – | – | – | – | – | – | – | – | >16 µg/mL | 2.5 µg/mL (≈ 4.6 µM) | –
CC(C)C12SSSSC3(C(=O)N1C)C1OC45C(=O)N(C)C(CO)C(=O)N4C4Nc6ccccc6C4(C5O)C14c1ccccc1NC4N3C2=O (centres unmarked) [Leptosin J, leptosin J] | – | – | > 128 µg/mL | > 128 µg/mL | > 128 µg/mL | > 128 µg/mL | 9 µg/mL (≈ 12.1 µM) | 64 µg/mL (≈ 86.4 µM) | – | – | > 128 µg/mL | > 128 µg/mL | > 0.5 µg/mL | – | 0.5 µg/mL | – | IC50 ([1]; 22 h): 128 µg/mL (≈ 173 µM); MIC ([1]; 22 h): > 128 µg/mL; IC50 ([4]; BJ): 0.5 µg/mL (≈ 0.675 µM); IC50 ([7]; 22 h): 0.7 µg/mL (≈ 0.945 µM); MIC ([7]; 22 h): 2 µg/mL (≈ 2.7 µM); IC50 [8]: > 0.5 µg/mL
C[C@@H]1[C@H](O)[C@@H](C)/C=C/C=C/CC/C=C/C=C/C=C/C=C/C(O[C@H]2O[C@H](C)[C@@H](O)[C@H](N)[C@@H]2O)CC2O[C@](O)(CC(O)C(O)CCC(O)CC(O)CC(O)CC(=O)O[C@H]1C)CC(O)C2C(=O)O (some centres unmarked) [Nystatin, nystatin, reference compound] | – | – | – | – | – | – | – | – | – | – | – | – | – | – | – | – | C. albicans IC50 [9, 11]: 0.92 µg/mL; C. albicans MIC [9, 11]: 1.6 µg/mL
CN[C@H](CC(C)C)C(=O)N[C@H]1C(=O)N[C@@H](CC(N)=O)C(=O)N[C@H]2C(=O)N[C@H]3C(=O)N[C@H](C(=O)N[C@H](C(=O)O)c4cc(O)cc(O)c4-c4cc3ccc4O)[C@H](O)c3ccc(c(Cl)c3)Oc3cc2cc(c3O[C@@H]2O[C@H](CO)[C@@H](O)[C@H](O)[C@H]2O[C@H]2C[C@](C)(N)[C@H](O)[C@H](C)O2)Oc2ccc(cc2Cl)[C@H]1O [Vancomycin, vancomycin, reference compound] | – | – | – | – | – | – | – | – | – | – | – | – | – | – | – | – | IC50 ([6]; ATCC17917, 22 h): 0.75 µg/mL (≈ 0.518 µM); MIC ([6]; ATCC17917, 22 h): 1 µg/mL (≈ 0.69 µM); IC50 ([7]; 22 h): 0.88 µg/mL (≈ 0.607 µM); MIC ([7]; 22 h): 1.6 µg/mL (≈ 1.1 µM)

Further lines, with some results ahead:

IC50 [1, 11] | MIC [1, 11] | IC50 [3] | MIC [3] | IC50 [5] | MIC [5] | IC50 [6, 12] | MIC [6, 12] | IC50 [7, 11] | MIC [7, 11] | IC50 [9, 11] | MIC [9, 11] | Structure (SMILES) | IC50 [2] | IC50 ([4]; BJ cells) | HTB-26 MIC [8, 13] | IC50 [8, 13] | further results
> 128 µg/mL | > 128 µg/mL | > 128 µg/mL | > 128 µg/mL | > 128 µg/mL | > 128 µg/mL | > 128 µg/mL | > 128 µg/mL | > 128 µg/mL | > 128 µg/mL | > 128 µg/mL | > 128 µg/mL | Cc1cc(CO)c2c(=O)c3c(O)cccc3oc2c1 [1-hydroxy-6-methyl-8-hydroxymethylxanthone] | 12 µg/mL (≈ 46.8 µM) | 29 µg/mL (≈ 113 µM) | 32 µg/mL | 24 µg/mL (≈ 93.7 µM) | –
128 µg/mL (≈ 268 µM) | > 128 µg/mL | > 128 µg/mL | > 128 µg/mL | > 128 µg/mL | > 128 µg/mL | > 128 µg/mL | > 128 µg/mL | > 128 µg/mL | > 128 µg/mL | > 128 µg/mL | > 128 µg/mL | Cc1cc(O)c2c(c1)C(C1c3cccc(O)c3C(=O)c3c(O)cc(C)cc31)c1cccc(O)c1C2=O (centres unmarked) [Chrysophanol bianthrone, chrysophanol bianthrone] | > 64 µg/mL | > 64 µg/mL | 64 µg/mL | 5 µg/mL (≈ 10.4 µM) | –
> 128 µg/mL | > 128 µg/mL | > 128 µg/mL | > 128 µg/mL | > 128 µg/mL | > 128 µg/mL | > 128 µg/mL | > 128 µg/mL | > 128 µg/mL | > 128 µg/mL | > 128 µg/mL | > 128 µg/mL | Cc1cc(O)c2c(c1)C(=O)c1cccc(O)c1C2=O [Chrysophanol, chrysophanol] | > 64 µg/mL | > 64 µg/mL | >64 µg/mL | > 64 µg/mL | activity against fibroblast cell line [4, 14]: inactive; activity against HTB-26 cell line [8, 14]: inactive
44 µg/mL (≈ 84.5 µM) | > 64 µg/mL | > 128 µg/mL | > 128 µg/mL | > 64 µg/mL | > 64 µg/mL | 33 µg/mL (≈ 63.4 µM) | 64 µg/mL (≈ 123 µM) | 48 µg/mL (≈ 92.2 µM) | 64 µg/mL (≈ 123 µM) | > 64 µg/mL | > 64 µg/mL | Cc1cc(=O)c(O)cc2c1C[C@H]1CC(C)(C)/C=C/C[C@@]3(C)Oc4cc(O)cc(C)c4C[C@@H]3C[C@H](O)[C@]1(C)O2 [Epolone A, epolone A] | 13 µg/mL (≈ 25 µM) | 14 µg/mL (≈ 26.9 µM) | – | – | induction of erythropoietin gene expression [10]: five-fold
52 µg/mL (≈ 135 µM) | > 64 µg/mL | > 128 µg/mL | > 128 µg/mL | > 64 µg/mL | > 64 µg/mL | – | – | 48 µg/mL (≈ 125 µM) | 64 µg/mL (≈ 166 µM) | 43 µg/mL (≈ 112 µM) | 64 µg/mL (≈ 166 µM) | C/C1=C\C(C)(C)/C=C/C[C@@]2(C)Oc3cc(O)c(=O)cc(C)c3CC2C[C@@H](O)C1 (some centres unmarked) [Epolone B, epolone B] | 50 µg/mL (≈ 130 µM) | > 128 µg/mL | – | – | induction of erythropoietin gene expression [10]: five-fold; effect against C. albicans [9]: inhibitory effect
0.5 µg/mL (≈ 0.608 µM) | 2 µg/mL (≈ 2.43 µM) | – | – | – | – | – | – | – | – | – | – | CO[C@H]1/C=C/O[C@@]2(C)Oc3c(C)c(O)c4c(O)c(c(/C=N/N5CCN(C)CC5)c(O)c4c3C2=O)NC(=O)/C(C)=C\C=C\[C@H](C)[C@H](O)[C@@H](C)[C@@H](O)[C@@H](C)[C@H](OC(C)=O)[C@@H]1C [Rifampicin, rifampicin, reference compound] | – | – | – | – | –
100 µg/mL (≈ 284 µM) | > 128 µg/mL | > 128 µg/mL | > 128 µg/mL | > 128 µg/mL | > 128 µg/mL | 23 µg/mL (≈ 65.2 µM) | 64 µg/mL (≈ 181 µM) | 14 µg/mL (≈ 39.7 µM) | 64 µg/mL (≈ 181 µM) | > 128 µg/mL | > 128 µg/mL | COC1=C(Cl)C(C)(O)c2c(oc(=O)c3c(O)cc(OC)cc23)C1=O (centres unmarked) [TMC-264] | 1 µg/mL (≈ 2.84 µM) | 13 µg/mL (≈ 36.9 µM) | 8 µg/mL | 2.8 µg/mL (≈ 7.94 µM) | –
